ChEMBL document CHEMBL3399915, “Design, synthesis, and evaluation of phenylglycinols and phenyl amines as agonists of GPR88” (Bioorg Med Chem Lett, 2015)

Key:
[1] = target: T1, G protein-coupled receptor 88 (Homo sapiens, UniProt Q9GZN0); assay: Agonist activity at GPR88 (unknown origin) transfected in forskolin-stimulated HEK cells assessed as inhibition of cAMP production after 30 mins by HTRF method relative to control; assay type: functional, cell-based, HEK293
[2] = Protein binding in rat brain by equilibrium dialysis method; assay type: ADME, tissue-based; settings: read-out: PB (converted)
[3] = Plasma concentration in rat at 10 mg/kg, ip after 30 mins; assay type: ADME, organism-based; parameters: dose 10 mg/kg, route intraperitoneal
[4] = Drug uptake in rat CSF at 10 mg/kg, ip after 30 mins; assay type: ADME, organism-based, Cerebrospinal fluid; parameters: dose 10 mg/kg, route intraperitoneal; settings: read-out: Drug uptake
[5] = Drug uptake in rat brain at 10 mg/kg, ip after 30 mins; assay type: ADME, organism-based; parameters: dose 10 mg/kg, route intraperitoneal; settings: read-out: Drug uptake
[6] = Drug uptake in rat lung at 10 mg/kg, ip after 30 mins; assay type: ADME, organism-based; parameters: dose 10 mg/kg, route intraperitoneal; settings: read-out: Drug uptake
[7] = Clearance in mouse at 10 mg/kg, ip; assay type: ADME, organism-based; parameters: dose 10 mg/kg, route intraperitoneal; settings: in vivo
[8] = target: T1, G protein-coupled receptor 88; assay: Agonist activity at GPR88 (unknown origin) transfected in forskolin-stimulated HEK cells assessed as [35S]GTPgammaS binding after 60 mins by trilux scintillation counting analysis relative to control; assay type: functional, cell-based, HEK293
[9] = Plasma protein binding in rat by equilibrium dialysis method; assay type: ADME, cell-free; settings: read-out: PPB (converted)
[10] = Plasma protein binding in mouse by equilibrium dialysis method; assay type: ADME, cell-free; settings: read-out: PPB (converted)
[11] = Clearance in mouse at 1 mg/kg, iv; assay type: ADME, organism-based; parameters: dose 1 mg/kg, route intravenous; settings: in vivo
[12] = Half life in mouse at 1 mg/kg, iv; assay type: ADME, organism-based; parameters: dose 1 mg/kg, route intravenous; settings: in vivo
[13] = Volume of distribution at steady state in mouse at 1 mg/kg, iv; assay type: ADME, organism-based; parameters: dose 1 mg/kg, route intravenous; settings: in vivo, read-out: Vdss
[14] = Drug uptake in mouse brain at 1 mg/kg, iv after 30 mins; assay type: ADME, organism-based; parameters: dose 1 mg/kg, route intravenous; settings: read-out: Drug uptake
[15] = Plasma concentration in mouse at 1 mg/kg, iv after 30 mins; assay type: ADME, organism-based; parameters: dose 1 mg/kg, route intravenous
[16] = Ratio of drug level in brain to plasma in mouse at 1 mg/kg, iv after 30 mins; assay type: ADME, organism-based; parameters: dose 1 mg/kg, route intravenous; settings: brain and plasma, read-out: BPR
[17] = Plasma concentration in rat at 30 mg/kg, ip after 30 mins; assay type: ADME, organism-based; parameters: dose 30 mg/kg, route intraperitoneal
[18] = Drug uptake in rat CSF at 30 mg/kg, ip after 30 mins; assay type: ADME, organism-based, Cerebrospinal fluid; parameters: dose 30 mg/kg, route intraperitoneal; settings: read-out: Drug uptake
[19] = Drug uptake in rat brain at 30 mg/kg, ip after 30 mins; assay type: ADME, organism-based; parameters: dose 30 mg/kg, route intraperitoneal; settings: read-out: Drug uptake
[20] = Drug uptake in rat lung at 30 mg/kg, ip after 30 mins; assay type: ADME, organism-based; parameters: dose 30 mg/kg, route intraperitoneal; settings: read-out: Drug uptake

T1 sequence (Q9GZN0 whole entry): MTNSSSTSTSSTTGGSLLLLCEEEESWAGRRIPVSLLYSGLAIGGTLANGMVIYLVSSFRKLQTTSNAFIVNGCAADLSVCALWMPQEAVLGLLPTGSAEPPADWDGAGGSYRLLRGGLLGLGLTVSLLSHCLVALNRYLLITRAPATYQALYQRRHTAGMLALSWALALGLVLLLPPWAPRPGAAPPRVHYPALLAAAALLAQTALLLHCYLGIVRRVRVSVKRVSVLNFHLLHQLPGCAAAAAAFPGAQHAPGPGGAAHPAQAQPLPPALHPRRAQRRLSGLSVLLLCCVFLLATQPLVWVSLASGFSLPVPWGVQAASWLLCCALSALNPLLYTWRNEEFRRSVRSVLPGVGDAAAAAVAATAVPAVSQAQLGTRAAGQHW

CC(C)COc1ccc([C@H](CO)NC(=O)[C@H]2C[C@@H]2c2cccs2)cc1
EC50 [1]: 690 nM | fraction unbound [2]: 0.05 | concentration at 0.5 h [3]: 3240 nM | concentration at 0.5 h [4]: 24 nM | concentration at 0.5 h [5]: 6850 nM | concentration at 0.5 h [6]: 10500 nM | CL/F [7]: 176 mL/min/kg

CO[C@@H](C)COc1ccc([C@H](CO)NC(=O)[C@@H](C)c2ccccc2)cc1
EC50 [1]: > 10000 nM

CC[C@H](C)COc1cc(C)c([C@H](CO)NC(=O)[C@@H](C)c2ccccc2)c(C)c1
EC50 [1]: 170 nM

CC[C@H](C)COc1ccc([C@H](CO)NC(=O)[C@@H](C)c2ccccc2)c(F)c1
EC50 [1]: 460 nM

COc1ccc([C@H](CO)NC(=O)[C@@H](C)c2ccccc2)cc1
EC50 [1]: 410 nM | fraction unbound [2]: 0.23 | concentration at 0.5 h [3]: 1240 nM | concentration at 0.5 h [4]: 335 nM | concentration at 0.5 h [5]: 450 nM | concentration at 0.5 h [6]: 970 nM

Cc1ccc(-c2ccc([C@H](CO)NC(=O)[C@H]3C[C@@H]3c3cccs3)cc2)cc1
EC50 [1]: 93 nM | %max ([1]; HEK293): 90% | EC50 [8]: 240 nM | %max ([8]; HEK293): 90% | fraction unbound [9]: 0.025 | fraction unbound [10]: 0.036 | clearance [11]: 47 mL/min/kg | half-life [12]: 36 min | Vd [13]: 2.17 L/kg | concentration at 0.5 h [14]: 695 nM | concentration at 0.5 h [15]: 290 nM | Kp at 0.5 h [16]: 2

CCCC(C)COc1ccc([C@H](CO)NC(=O)[C@@H](NC)c2ccccc2)cc1 (mixture of isomers)
EC50 [1]: 860 nM

O=C(NC(CO)c1ccc2ccccc2c1)[C@@H]1C[C@H]1c1ccccc1 (mixture of isomers)
EC50 [1]: 6000 nM

C[C@H](C(=O)N[C@@H](CO)c1ccc(OCC2CCO2)cc1)c1ccccc1 (stereo partly drawn)
EC50 [1]: > 10000 nM

CC(C)COc1ccc([C@H](CO)NC(=O)[C@@H](C)c2ccccc2)cc1
EC50 [1]: 500 nM

CC[C@H](C)COc1ccc([C@H](CO)NC(=O)[C@@H](C)c2ccccc2)cc1
EC50 [1]: 190 nM

CCCC(C)COc1ccc([C@H](CO)NC(=O)[C@H]2C[C@@H]2c2ccccc2)cc1 (mixture of isomers)
EC50 [1]: 730 nM

CC[C@H](C)COc1ccc([C@H](CO)NC(=O)[C@@H](C)c2ccccc2)c(C)c1
EC50 [1]: 160 nM

CCCC(C)COc1ccc([C@H](CN2CCCC2)NC(=O)[C@@H](C)c2ccccc2)cc1 (mixture of isomers)
EC50 [1]: 570 nM

CCCC(C)COc1ccc([C@H](CN)NC(=O)[C@@H](C)c2ccccc2)cc1 (mixture of isomers)
EC50 [1]: 110 nM

CC[C@H](C)COc1ccc([C@H](CO)NC(=O)[C@H]2C[C@@H]2c2cccs2)cc1
EC50 [1]: > 10000 nM | fraction unbound [2]: 0.06 | concentration at 0.5 h [3]: 2210 nM | concentration at 0.5 h [4]: 5.6 nM | concentration at 0.5 h [5]: 2510 nM | concentration at 0.5 h [17]: 5270 nM | concentration at 0.5 h [18]: 5.7 nM | concentration at 0.5 h [19]: 5540 nM | concentration at 0.5 h [20]: 11500 nM | CL/F [7]: 144 mL/min/kg

CCCC(C)COc1ccc([C@H](CO)NC(=O)N(CC)Cc2ccccc2)cc1 (mixture of isomers)
EC50 [1]: 1500 nM

O=C(N[C@@H](CO)c1ccc2ccccc2c1)[C@H]1C[C@@H]1c1ccccc1
EC50 [1]: 2500 nM

CC[C@H](C)COc1ccc([C@H](CN)NC(=O)[C@@H](C)c2ccccc2)cc1
EC50 [1]: > 10000 nM | fraction unbound [2]: 0.09 | concentration at 0.5 h [3]: 860 nM | concentration at 0.5 h [4]: 1.1 nM | concentration at 0.5 h [5]: 340 nM | concentration at 0.5 h [6]: 59500 nM | CL/F [7]: 66 mL/min/kg

CC[C@H](C)COc1ccc([C@H](CO)NC(=O)[C@@H](C)c2ccccc2)c(C)n1
EC50 [1]: 260 nM

O=C(N[C@@H](CO)c1ccc2ccccc2c1)[C@H]1C[C@H]1c1ccccc1
EC50 [1]: > 110000 nM

CCCC(C)COc1ccc([C@H](CO)NC(=O)C(CO)c2ccccc2)cc1 (mixture of isomers)
EC50 [1]: 810 nM

CCCC(C)COc1ccc([C@H](CN(C)C)NC(=O)[C@@H](C)c2ccccc2)cc1 (mixture of isomers)
EC50 [1]: 29 nM

CCCC(C)COc1ccc([C@H](CN2CCN(C)CC2)NC(=O)[C@@H](C)c2ccccc2)cc1 (mixture of isomers)
EC50 [1]: 90 nM

CCCC(C)COc1ccc([C@H](CO)NC(=O)Cc2ccccc2)cc1 (mixture of isomers)
EC50 [1]: > 10000 nM

CCCC(C)COc1ccc([C@H](CO)NC(=O)c2ccccc2)cc1 (mixture of isomers)
EC50 [1]: 170 nM

CCCC(C)COc1ccc([C@H](CN2CCOCC2)NC(=O)[C@@H](C)c2ccccc2)cc1 (mixture of isomers)
EC50 [1]: 91 nM

O=C(N[C@@H](CO)c1ccc2ccccc2c1)[C@@H]1C[C@H]1c1ccccc1
EC50 [1]: > 270000 nM

COCC(C)Oc1ccc([C@H](CO)NC(=O)[C@@H](C)c2ccccc2)cc1 (stereo partly drawn)
EC50 [1]: > 10000 nM

O=C(N[C@@H](CO)c1ccc2ccccc2c1)[C@@H]1C[C@@H]1c1ccccc1
EC50 [1]: > 81000 nM

CC[C@H](C)COc1ccc([C@H](CO)NC(=O)[C@@H](C)c2ccccc2)c(OC)c1
EC50 [1]: 190 nM
